In patent US8372854B2, “Pyrrolo[2,3-D]pyrimidine compounds” (Pfizer Inc., priority 2009, dated 2013):

Legend:
Assay type in all cases: biochemical
[1] = biological target: T1, JAK1 (Homo sapiens, UniProt P23458); experiment: JAK enzymatic assay (peptide mobility shift), JAK1; conditions: recombinant JAK1 20 nM, ATP 40 μM, 1 μM IRS-1 peptide, 240 minutes
T1 construct: purchased Invitrogen Corporation, Madison, Wis; PV4775
Excerpt: (§1) Recombinant JAK1 (Catalog Number PV4775), JAK2 (Catalog Number PV4210) and JAK3 (Catalog Number PV3855) were purchased from (Invitrogen Corporation, Madison, Wis.). Tyk2 (His-Tyk2 (888-1182, C936S, C1142S)) used in this study was expressed and purified at Pfizer Laboratories. Adenosine 5′-triphosphate (ATP) was obtained from (Sigma Chemical Company, St. Louis, Mo.). The JAKtide peptide (peptide sequence, FITC-[…]) used for the JAK2 and JAK3 assays and the IRS-1 peptide (peptide sequence, 5-FAM-[…]) used for the JAK1 and Tyk2 assays were purchased from (American Peptide Company, Sunnyvale, Calif.). Coating Reagent 3 was purchased from (Caliper Life Sciences, Hopkinton, Mass.).
(§2) A peptide mobility shift assay was used to quantify the phosphorylation of the JAKtide (JAK2 and JAK3) or the IRS-1 peptide ([…] and Tyk2). Reactions were carried out in a 384-well plate (Matrical MP-101) in a 10 μL total volume. Reaction mixtures contained 20 mM HEPES, pH 7.4, 10 mM magnesium chloride, 0.01% bovine serum albumin (BSA), 0.0005% Tween-20, ATP (4 μM for JAK2 and JAK3, 40 μM for JAK1 and 7 μM for Tyk2)), 2% DMSO and 1 μM peptide substrate (JAKtide for JAK2 and JAK3 and IRS-1 peptide for JAK1 and Tyk2). Compounds were diluted serially in 100% dimethyl sulfoxide and tested in an 11 point dose response in duplicate or quadruplicate (200 nl of compound/DMSO was added per 10 μL reaction). The reactions were initiated by the addition of enzyme to the final concentration of 2 nM JAK2, 1 nM JAK3, 12 nM Tyk2 or 20 nM JAK1. The assay was run for 240 minutes for JAK1, 150 minutes for JAK2, 90 minutes for JAK3 and 70 minutes for Tyk2. The assays were stopped at the specified times with 20 uL of 140 mM HEPES, 22.5 mM EDTA and 0.15% Coating Reagent 3. The plates were placed on a LabChip 3000 (LC3000) instrument from (Caliper Life Sciences) to measure the formation of phosphorylated peptide. Data was analyzed using Hits Well Analyzer Software from (Caliper Life Sciences) to obtain the amount of product formed.
(§3) Data was then imported into an internal application where each data point is expressed as % inhibition based on uninhibited and no enzyme controls. Dose-response data is then fit using a 4 parameter logistic equation (Equation 1) to determine an IC50.
(§4) Where max is the fitted uninhibited value, min is the fitted complete inhibition value, and s is the slope factor.

[2] = biological target: T2, JAK2 (Homo sapiens, UniProt O60674); experiment: JAK enzymatic assay (peptide mobility shift), JAK2; conditions: recombinant JAK2 2 nM, ATP 4 μM, 1 μM JAKtide peptide, 150 minutes
T2 construct: purchased Invitrogen Corporation, Madison, Wis; PV4210
Excerpt: as §1, §2, §3, §4

[3] = biological target: T3, JAK3 (Homo sapiens, UniProt P52333); experiment: JAK enzymatic assay (peptide mobility shift), JAK3; conditions: recombinant JAK3 1 nM, ATP 4 μM, 1 μM JAKtide peptide, 90 minutes
T3 construct: purchased Invitrogen Corporation, Madison, Wis; PV3855
T3 sequence (P52333 1-1124): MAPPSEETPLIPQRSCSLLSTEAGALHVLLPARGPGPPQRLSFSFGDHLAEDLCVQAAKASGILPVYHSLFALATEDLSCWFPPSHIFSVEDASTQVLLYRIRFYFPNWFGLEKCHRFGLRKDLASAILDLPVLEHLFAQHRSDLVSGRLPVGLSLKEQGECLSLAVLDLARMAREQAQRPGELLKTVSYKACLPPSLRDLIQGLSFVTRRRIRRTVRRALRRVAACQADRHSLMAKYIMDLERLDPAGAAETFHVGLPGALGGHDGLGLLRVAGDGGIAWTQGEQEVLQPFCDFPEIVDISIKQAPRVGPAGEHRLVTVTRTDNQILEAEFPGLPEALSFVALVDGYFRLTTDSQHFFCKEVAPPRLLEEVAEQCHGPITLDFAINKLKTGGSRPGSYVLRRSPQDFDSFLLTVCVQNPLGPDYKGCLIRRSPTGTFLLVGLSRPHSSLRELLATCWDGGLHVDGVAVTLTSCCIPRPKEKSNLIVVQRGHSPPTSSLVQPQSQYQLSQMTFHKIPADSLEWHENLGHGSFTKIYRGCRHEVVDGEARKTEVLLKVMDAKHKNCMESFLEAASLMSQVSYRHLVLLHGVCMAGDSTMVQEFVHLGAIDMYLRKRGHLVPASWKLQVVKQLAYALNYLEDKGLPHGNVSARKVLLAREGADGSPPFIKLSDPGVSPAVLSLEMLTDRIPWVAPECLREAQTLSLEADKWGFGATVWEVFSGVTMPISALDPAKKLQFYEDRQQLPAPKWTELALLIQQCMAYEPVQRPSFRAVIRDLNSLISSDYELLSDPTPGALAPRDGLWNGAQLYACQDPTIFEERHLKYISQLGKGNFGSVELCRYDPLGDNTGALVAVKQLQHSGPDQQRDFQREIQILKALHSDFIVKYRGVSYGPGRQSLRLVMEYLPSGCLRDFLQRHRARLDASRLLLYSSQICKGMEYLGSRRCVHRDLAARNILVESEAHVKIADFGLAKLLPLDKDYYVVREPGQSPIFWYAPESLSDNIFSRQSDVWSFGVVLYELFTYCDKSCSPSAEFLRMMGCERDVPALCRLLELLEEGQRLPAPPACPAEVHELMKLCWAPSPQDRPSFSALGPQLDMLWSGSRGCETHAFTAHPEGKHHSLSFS
Excerpt: Recombinant JAK1 (Catalog Number PV4775), JAK2 (Catalog Number PV4210) and JAK3 (Catalog Number PV3855) were purchased from (Invitrogen Corporation, Madison, Wis.). Tyk2 (His-Tyk2 (888-1182, C936S, C1142S)) used in this study was expressed and purified at Pfizer Laboratories. Adenosine 5′-triphosphate (ATP) was obtained from (Sigma Chemical Company, St. Louis, Mo.). […] Coating Reagent 3 was purchased from (Caliper Life Sciences, Hopkinton, Mass.).
as §2, §3, §4

T1 sequence (P23458 whole entry): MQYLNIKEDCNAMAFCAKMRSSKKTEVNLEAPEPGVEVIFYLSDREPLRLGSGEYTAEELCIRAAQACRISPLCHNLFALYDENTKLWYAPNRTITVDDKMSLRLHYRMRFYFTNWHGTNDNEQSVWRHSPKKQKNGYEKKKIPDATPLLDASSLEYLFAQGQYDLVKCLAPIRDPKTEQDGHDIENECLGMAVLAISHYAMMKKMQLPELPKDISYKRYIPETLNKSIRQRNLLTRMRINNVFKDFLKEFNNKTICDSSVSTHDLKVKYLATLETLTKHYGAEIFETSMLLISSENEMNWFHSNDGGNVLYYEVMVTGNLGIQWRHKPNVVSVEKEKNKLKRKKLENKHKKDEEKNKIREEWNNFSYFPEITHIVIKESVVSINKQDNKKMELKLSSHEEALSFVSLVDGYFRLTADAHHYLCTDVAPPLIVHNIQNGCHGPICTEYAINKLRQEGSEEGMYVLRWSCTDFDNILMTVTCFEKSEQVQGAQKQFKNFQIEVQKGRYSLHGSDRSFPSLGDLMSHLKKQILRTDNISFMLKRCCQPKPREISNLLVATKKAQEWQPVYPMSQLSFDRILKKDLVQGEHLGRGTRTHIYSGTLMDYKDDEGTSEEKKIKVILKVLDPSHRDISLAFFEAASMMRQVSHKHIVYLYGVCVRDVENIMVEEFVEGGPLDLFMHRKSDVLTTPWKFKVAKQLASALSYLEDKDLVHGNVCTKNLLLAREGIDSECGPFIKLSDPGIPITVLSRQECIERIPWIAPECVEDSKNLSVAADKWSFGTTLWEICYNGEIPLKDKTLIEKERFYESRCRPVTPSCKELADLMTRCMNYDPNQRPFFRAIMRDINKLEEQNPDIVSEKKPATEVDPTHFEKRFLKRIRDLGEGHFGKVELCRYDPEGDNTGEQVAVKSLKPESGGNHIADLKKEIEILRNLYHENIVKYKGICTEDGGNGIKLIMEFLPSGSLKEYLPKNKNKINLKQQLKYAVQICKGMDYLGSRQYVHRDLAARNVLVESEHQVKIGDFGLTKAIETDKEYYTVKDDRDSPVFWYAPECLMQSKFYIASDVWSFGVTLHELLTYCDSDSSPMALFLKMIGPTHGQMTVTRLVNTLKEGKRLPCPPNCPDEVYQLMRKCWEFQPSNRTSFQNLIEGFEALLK
T2 sequence (O60674 whole entry): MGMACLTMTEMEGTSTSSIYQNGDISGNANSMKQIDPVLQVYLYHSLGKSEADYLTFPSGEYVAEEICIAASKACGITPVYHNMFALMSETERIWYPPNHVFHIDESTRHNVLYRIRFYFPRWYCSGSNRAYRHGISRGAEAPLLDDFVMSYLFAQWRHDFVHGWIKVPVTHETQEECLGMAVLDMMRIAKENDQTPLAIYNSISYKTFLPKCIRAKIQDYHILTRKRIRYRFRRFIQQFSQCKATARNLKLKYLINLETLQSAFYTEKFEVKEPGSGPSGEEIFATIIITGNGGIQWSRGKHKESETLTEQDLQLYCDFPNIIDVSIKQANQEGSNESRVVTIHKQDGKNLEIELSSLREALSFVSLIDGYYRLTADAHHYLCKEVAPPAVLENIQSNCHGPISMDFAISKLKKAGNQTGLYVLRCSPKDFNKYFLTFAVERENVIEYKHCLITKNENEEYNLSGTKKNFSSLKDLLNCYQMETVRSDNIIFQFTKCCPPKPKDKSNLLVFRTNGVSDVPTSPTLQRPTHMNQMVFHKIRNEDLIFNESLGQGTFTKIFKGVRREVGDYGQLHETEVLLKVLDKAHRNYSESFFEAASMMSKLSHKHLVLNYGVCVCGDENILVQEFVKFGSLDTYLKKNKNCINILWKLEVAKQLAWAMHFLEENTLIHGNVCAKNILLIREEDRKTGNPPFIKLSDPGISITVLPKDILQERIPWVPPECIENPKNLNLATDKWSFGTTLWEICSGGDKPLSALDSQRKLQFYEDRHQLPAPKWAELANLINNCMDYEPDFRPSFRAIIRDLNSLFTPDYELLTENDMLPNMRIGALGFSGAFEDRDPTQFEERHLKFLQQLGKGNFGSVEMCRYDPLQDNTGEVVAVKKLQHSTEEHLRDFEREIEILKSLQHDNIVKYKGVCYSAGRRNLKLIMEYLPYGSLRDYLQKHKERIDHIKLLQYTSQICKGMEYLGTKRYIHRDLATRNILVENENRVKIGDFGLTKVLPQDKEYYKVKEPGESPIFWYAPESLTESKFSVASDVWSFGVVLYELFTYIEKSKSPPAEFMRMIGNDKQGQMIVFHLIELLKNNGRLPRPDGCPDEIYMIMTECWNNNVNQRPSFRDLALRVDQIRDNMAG

SMILES	IC50 [1]	IC50 [2]	IC50 [3]
CN(c1ncnc2[nH]ccc12)[C@H]1CC[C@H](CS(=O)(=O)NC2CC2)CC1 [Example 1, N-cyclopropyl-1-{trans-4-[methyl(7H-pyrrolo[2,3-d]pyrimidin-4-yl)amino]cyclohexyl}methanesulfonamide]	10 nM	45.4 nM	224 nM
CN(c1ncnc2[nH]ccc12)[C@H]1CC[C@H](CS(=O)(=O)NCCc2ccc(S(N)(=O)=O)cc2)CC1 [Example 2, 4-(2-{[({trans-4-[methyl(7H-pyrrolo[2,3-d]pyrimidin-4-yl)amino]cyclohexyl}methyl)sulfonyl]amino}ethyl)benzene-sulfonamide]	1.82 nM	14.9 nM	166 nM
CN(c1ncnc2[nH]ccc12)[C@H]1CC[C@H](CS(=O)(=O)NCCc2ccc(O)cc2)CC1 [Example 3, N-[2-(4-hydroxyphenyl)-ethyl]-1-{trans-4-[methyl-(7H-pyrrolo[2,3-d]pyrimidin-4-yl)amino]cyclohexyl}-methanesulfonamide]	2.25 nM	28.6 nM	257 nM
Cc1ccc(CCNS(=O)(=O)C[C@H]2CC[C@H](N(C)c3ncnc4[nH]ccc34)CC2)c(C)c1 [Example 4, N-[2-(2,4-dimethylphenyl)-ethyl]-1-{trans-4-[methyl-(7H-pyrrolo[2,3-d]pyrimidin-4-yl)amino]cyclohexyl}-methanesulfonamide]	3.01 nM	9.17 nM	139 nM
COc1ccccc1CCNS(=O)(=O)C[C@H]1CC[C@H](N(C)c2ncnc3[nH]ccc23)CC1 [Example 5, N-[2-(2-methoxyphenyl)-ethyl]-1-{trans-4-[methyl-(7H-pyrrolo[2,3-d]pyrimidin-4-yl)amino]cyclohexyl}-methanesulfonamide]	3.78 nM	17 nM	188 nM
CN(c1ncnc2[nH]ccc12)[C@H]1CC[C@H](CS(=O)(=O)NCC(F)(F)c2ccccc2)CC1 [Example 6, N-(2,2-difluoro-2-phenyl-ethyl)-1-{trans-4-[methyl-(7H-pyrrolo[2,3-d]pyrimidin-4-yl)amino]cyclohexyl}-methanesulfonamide]	4.22 nM	11.8 nM	101 nM
Cc1ccc(CCNS(=O)(=O)C[C@H]2CC[C@H](N(C)c3ncnc4[nH]ccc34)CC2)cc1 [Example 7, N-[2-(4-methylphenyl)-ethyl]-1-{trans-4-[methyl-(7H-pyrrolo[2,3-d]pyrimidin-4-yl)amino]cyclohexyl}-methanesulfonamide]	4.44 nM	11.3 nM	137 nM
CN(c1ncnc2[nH]ccc12)[C@H]1CC[C@H](CS(=O)(=O)NCC(C)(F)c2ccc(F)cc2)CC1 (stereo partly drawn) [Example 8, N-[2-fluoro-2-(4-fluoro-phenyl)propyl]-1-{trans-4-[methyl(7H-pyrrolo[2,3-d]-pyrimidin-4-yl)amino]-cyclohexyl}-methanesulfonamide]	6.05 nM	32.3 nM	403 nM
CN(c1ncnc2[nH]ccc12)[C@H]1CC[C@H](CS(=O)(=O)NCC(C)(F)c2cccc(F)c2)CC1 (stereo partly drawn) [Example 9, N-[2-fluoro-2-(3-fluoro-phenyl)propyl]-1-{trans-4-[methyl(7H-pyrrolo[2,3-d]-pyrimidin-4-yl)amino]-cyclohexyl}-methanesulfonamide]	10.5 nM	39.7 nM	531 nM
COc1cccc(CCNS(=O)(=O)C[C@H]2CC[C@H](N(C)c3ncnc4[nH]ccc34)CC2)c1 [Example 10, N-[2-(3-methoxyphenyl)-ethyl]-1-{trans-4-[methyl-(7H-pyrrolo[2,3-d]pyrimidin-4-yl)amino]cyclohexyl}-methanesulfonamide]	11 nM	34.1 nM	301 nM
CN(c1ncnc2[nH]ccc12)[C@H]1CC[C@H](CS(=O)(=O)NCC(F)c2ccc(F)cc2)CC1 (stereo partly drawn) [Example 11, N-[2-fluoro-2-(4-fluoro-phenyl)ethyl]-1-{trans-4-[methyl(7H-pyrrolo[2,3-d]-pyrimidin-4-yl)amino]-cyclohexyl}-methanesulfonamide]	13.5 nM	61.9 nM	424 nM
CN(c1ncnc2[nH]ccc12)[C@H]1CC[C@H](CS(=O)(=O)NCCc2ccc(C(F)(F)F)cc2)CC1 [Example 12, 1-{trans-4-[methyl(7H-pyrrolo[2,3-d]pyrimidin-4-yl)amino]cyclohexyl}-N-{2-[4-(trifluoromethyl)-phenyl]ethyl}-methanesulfonamide]	16.5 nM	55.5 nM	511 nM
CN(c1ncnc2[nH]ccc12)[C@H]1CC[C@H](CS(=O)(=O)NCCc2ccc(C(F)(F)F)cc2F)CC1 [Example 13, N-{2-[2-fluoro-4-(trifluoro-methyl)phenyl]ethyl}-1-{trans-4-[methyl(7H-pyrrolo[2,3-d]pyrimidin-4-yl)amino]cyclohexyl}-methanesulfonamide]	17.4 nM	55.3 nM	
CN(c1ncnc2[nH]ccc12)[C@H]1CC[C@H](CS(=O)(=O)NCCc2ccccc2F)CC1 [Example 14, N-[2-(2-fluorophenyl)ethyl]-1-{trans-4-[methyl(7H-pyrrolo[2,3-d]pyrimidin-4-yl)amino]cyclohexyl}methanesulfonamide]	4.65 nM	20.5 nM	148 nM
CN(c1ncnc2[nH]ccc12)[C@H]1CC[C@H](CS(=O)(=O)NCCc2ccccc2)CC1 [Example 15, 1-{trans-4-[methyl(7H-pyrrolo-[2,3-d]pyrimidin-4-yl)amino]-cyclohexyl}-N-(2-phenylethyl)-methanesulfonamide]	2.87 nM	12 nM	87.8 nM
CN(c1ncnc2[nH]ccc12)[C@H]1CC[C@H](CS(=O)(=O)NCc2ccccc2)CC1 [Example 16, N-benzyl-1-{trans-4-[methyl-(7H-pyrrolo[2,3-d]pyrimidin-4-yl)amino]-cyclohexyl}-methanesulfonamide]	13.5 nM	29.4 nM	182 nM
